Tests used:
[1] = tested on: cells from the thymus of normal BALB/c mice; test: comitogen-induced thymocyte proliferation procedure (LAF); assay type: cell-based; settings: PHA and IL-1, 72 hours, tritiated thymidine last six hours
Protocol: Immunosuppresive activity of the compounds of the present invention was evaluated in an in vitro standard pharmacological test procedure to measure lymphocyte proliferation (LAF).
Briefly, cells from the thymus of normal BALB/c mice were cultured for 72 hours with PHA and IL-1 and pulsed with tritiated thymidine during the last six hours. […] Cells are harvested and incorporated; radioactivity is determined. Inhibition of lymphoproliferation is assessed in percent change in counts per minute from non-drug treated controls. The results are expressed by the following ratio: [formula]

adjuvant arthritis model = settings: model for rheumatoid arthritis; cited from earlier work
IGE-like antibodies = settings: in vivo; cited from earlier work
[2] = cited from earlier work
[3] = tested on: experimental allergic encephalomyelitis model; settings: model for multiple sclerosis; cited from earlier work
transplant rejection = settings: in vivo; cited from earlier work
Candida albicans = settings: both in vitro and in vivo; cited from earlier work

SMILES | R/*A at 10 nM (relative potency of analogs/rapamycin) [1] | R/*A at 100 nM (relative potency of analogs/rapamycin) [1] | also measured
CO[C@H]1C[C@@H]2CC[C@@H](C)[C@@](O)(O2)C(=O)C(=O)N2CCCC[C@H]2C(=O)O[C@H]([C@H](C)C[C@@H]2CC[C@@H](OC(=O)CCCCCCCC(=O)O[C@@H]3CC[C@@H](C[C@@H](C)[C@@H]4CC(=O)[C@H](C)/C=C(\C)[C@@H](O)[C@@H](OC)C(=O)[C@H](C)C[C@H](C)/C=C/C=C/C=C(\C)[C@@H](OC)C[C@@H]5CC[C@@H](C)[C@@](O)(O5)C(=O)C(=O)N5CCCC[C@H]5C(=O)O4)C[C@H]3OC)[C@H](OC)C2)CC(=O)[C@H](C)/C=C(\C)[C@@H](O)[C@@H](OC)C(=O)[C@H](C)C[C@H](C)/C=C/C=C/C=C/1C [Example 4, Rapamycin-42,42'-diacid with nonanedioic acid] | 1.10 | 1.0 | 
CO[C@H]1C[C@@H]2CC[C@@H](C)[C@@](O)(O2)C(=O)C(=O)N2CCCC[C@H]2C(=O)O[C@H]([C@H](C)C[C@@H]2CC[C@@H](OC(=O)CCCCCC(=O)O[C@@H]3CC[C@@H](C[C@@H](C)[C@@H]4CC(=O)[C@H](C)/C=C(\C)[C@@H](O)[C@@H](OC)C(=O)[C@H](C)C[C@H](C)/C=C/C=C/C=C(\C)[C@@H](OC)C[C@@H]5CC[C@@H](C)[C@@](O)(O5)C(=O)C(=O)N5CCCC[C@H]5C(=O)O4)C[C@H]3OC)[C@H](OC)C2)CC(=O)[C@H](C)/C=C(\C)[C@@H](O)[C@@H](OC)C(=O)[C@H](C)C[C@H](C)/C=C/C=C/C=C/1C [Example 2, Rapamycin-42,42'-diester with heptanedioic acid] | 0.28 | 0.96 | 
CO[C@H]1C[C@@H]2CC[C@@H](C)[C@@](O)(O2)C(=O)C(=O)N2CCCC[C@H]2C(=O)O[C@H]([C@H](C)C[C@@H]2CC[C@@H](O)[C@H](OC)C2)CC(=O)[C@H](C)/C=C(\C)[C@@H](O)[C@@H](OC)C(=O)[C@H](C)C[C@H](C)/C=C/C=C/C=C/1C [Rapamycin] |  |  | effect in the adjuvant arthritis model (adjuvant arthritis model): effective; inhibition of the formation of IGE-like antibodies (IGE-like antibodies): effectively inhibited; antitumor activity ([2]; alone): antitumor activity; antitumor activity in combination ([2]; in combination with picibanil): antitumor activity; effect in the experimental allergic encephalomyelitis model [3]: effective; inhibiting transplant rejection (transplant rejection): effective in inhibiting transplant rejection; antifungal activity (Candida albicans): antifungal activity
CO[C@H]1C[C@@H]2CC[C@@H](C)[C@@](O)(O2)C(=O)C(=O)N2CCCC[C@H]2C(=O)O[C@H]([C@H](C)C[C@@H]2CC[C@@H](OC(=O)CCCCCCC(=O)O[C@@H]3CC[C@@H](C[C@@H](C)[C@@H]4CC(=O)[C@H](C)/C=C(\C)[C@@H](O)[C@@H](OC)C(=O)[C@H](C)C[C@H](C)/C=C/C=C/C=C(\C)[C@@H](OC)C[C@@H]5CC[C@@H](C)[C@@](O)(O5)C(=O)C(=O)N5CCCC[C@H]5C(=O)O4)C[C@H]3OC)[C@H](OC)C2)CC(=O)[C@H](C)/C=C(\C)[C@@H](O)[C@@H](OC)C(=O)[C@H](C)C[C@H](C)/C=C/C=C/C=C/1C [Example 3, Rapamycin-42,42'-diester with octanedioic acid] | 0.59 | 1.0 | 
CO[C@H]1C[C@@H]2CC[C@@H](C)[C@@](O)(O2)C(=O)C(=O)N2CCCC[C@H]2C(=O)O[C@H]([C@H](C)C[C@@H]2CC[C@@H](OC(=O)CCCCC(=O)O[C@@H]3CC[C@@H](C[C@@H](C)[C@@H]4CC(=O)[C@H](C)/C=C(\C)[C@@H](O)[C@@H](OC)C(=O)[C@H](C)C[C@H](C)/C=C/C=C/C=C(\C)[C@@H](OC)C[C@@H]5CC[C@@H](C)[C@@](O)(O5)C(=O)C(=O)N5CCCC[C@H]5C(=O)O4)C[C@H]3OC)[C@H](OC)C2)CC(=O)[C@H](C)/C=C(\C)[C@@H](O)[C@@H](OC)C(=O)[C@H](C)C[C@H](C)/C=C/C=C/C=C/1C [Example 1, Rapamycin-42,42'-diester with hexanedioic acid] | 0.95 | 1.0 | 

From patent US5120727A, “Rapamycin dimers” (American Home Products Corporation, priority 1991, dated 1992)
